We go through one compound from US20090078651A1, “Mung Water Treatment Method” (ReNew Systems, Inc., priority 2007, published 2009).

The structures appear in SMILES notation. Where only a bound is given, the exact number is not on record here.

The subject of data set [1] is bacteria colonies from mung water. Description: Most probable number plates of treated mung water samples (bacteria colony counts). The format is cell-based. Particulars: for colonies counted, Most Probable Number Plates: T = 24. How it is done: On 27 Sep. 2006 an experimental was conducted to compare the effects of treating mung water with DBNPA only to the effects of treating mung water with both DBNPA and Odor-Out®. The experiment was set-up in 250 ml baffled shake flasks with dispo plugs. The Odor Out® solutions used in this experiment were “aged”, having been prepared on 12 Sep. 2006 in tap water. The DBNPA solution was made up just prior to making additions to the flasks and was made using distilled water. After mung water samples and DBNPA and Odor Out® treatment additives were added, the flasks were placed in an incubation shaker set at 30 degrees C. and shaken at 100 rpm. The experiment was started at 2:30 p.m. on 27 Sep. 2006. The flasks were shaken for 2½ hours at which point the shaker was turned off and the flasks were allowed to incubate in a stationary position overnight. The next day, on 28 Sep. 2006 from 11 a.m.-2 p.m., serial dilutions were made up and most probable number plates were prepared. The plates were incubated overnight at 30 degrees C. On 29 Sep.

The conditions of data set [2]: designed property; cited from earlier work.

In the case of `N#CC(Br)(Br)C(N)=O` [DBNPA, 2.2-dibromo-3-nitrilopropionamide], the “colonies counted, Most Probable Number Plates” value in data set [1] (Straight, DBNPA 0.05% 10 μl in 50 ml mung water, no Odor Out (1a)) was “TNC (the colonies on the plates were too numerous to count (>300))”; in data set [1] (dilution 10^−1, DBNPA 0.05% 10 μl in 50 ml mung water, no Odor Out (1a)), “TNC (the colonies on the plates were too numerous to count (>300))”; in data set [1] (dilution 10^−2, DBNPA only (1a)), 5; in data set [1] (dilution 10^−3, DBNPA only (1a)), 1; in data set [1] (dilution 10^−4, DBNPA only (1a)), 0; in data set [1] (dilution 10^−5, DBNPA only (1a)), 0. Besides, the “colonies counted, Most Probable Number Plates” value in data set [1] (dilution 10^−6, DBNPA only (1a)) is 0; in data set [1] (dilution 10^−7, DBNPA only (1a)) it was 0. Moreover, in data set [1] (mung water samples treated only with DBNPA), the “bacteria colony counts, change” value is “moderate reductions”. In addition, the “time to biodegrade after introduction into a recirculating water system” value in data set [2] was no more than 48 h.
